Experimental findings from patent publication US20250305931A1, “METHOD FOR ANALYZING A URINE SAMPLE, AND A REAGENT FOR ANALYZING A URINE SAMPLE” (SYSMEX CORPORATION, priority 2024, published 2025) are described below.

The test system of assay [1] is purified yeast fungus (C. glabrata). The assay can be described thus: Staining of yeast-like fungi in spiked negative urine, flow cytometer UF-5000 SF channel, average fluorescence intensity of the yeast cluster. The assay is classed as cell-based. The note with it: for average value of the fluorescence intensity compared with 2-phenoxyethanol used alone: Example 2, compound mixed with 2-phenoxyethanol; for average value of the fluorescence intensity compared with when other compounds are used: concentrations of Table 2. As for the experimental part:
Each of the following substances was dissolved in purified water to prepare a buffer solution.
When the compound shown in the following table was not dissolved, the compound was used after filtration. […] Furthermore, a first reagent having the same composition as Diluting Liquid of EXAMPLE-1 of U.S. Patent Publication No. 2006/0073601 was prepared. The first reagent is represented by [2-phenoxyethanol(*)] in the following table. In the following table, the compound of the present embodiment is shown in bold.
UF-fluorocell SF for UF-5000 (Sysmex Corporation) was used. Such reagents include polymethine-based dyes and stain lipid bilayer membranes and porous protein aggregates of cells, and the like.
A purified yeast fungus (C. glabrata) was added to negative urine to a concentration of about 1800 cells/μL. In order to confirm the effect on red blood cells, human blood was added to negative urine so that the concentration of red blood cells was about 400 cells/μL. As the negative urine, a commercially available Normal Human Urine (Golden West Diagnostics, LLC) was filtered through a 0.22-μm membrane filter, and a urine specimen having a negative result in a sediment assay was used.
A measurement sample was prepared by mixing a first reagent and a second reagent with a urine sample, and measurement was performed using an SF channel of a flow cytometer UF-5000 (Sysmex Corporation), and a scattergram was prepared in which a forward scattered light intensity was taken on the vertical axis and a fluorescence intensity was taken on the horizontal axis. In measurement using the SF channel, red blood cells, crystals, a glass cylinder, a cylinder containing contents, and the like are measured. To calculate the average value of the fluorescence intensity of yeast fungi, an arbitrary region Y for each measurement was set, and the average value of the fluorescence intensity of a population of dots appearing in the region was calculated. Note that the value of the fluorescence intensity is a relative value when the minimum value of the horizontal axis in the scattergram is 0 and the maximum value is 255.
SF. Specifically, after mixing 362.5 μL of the first reagent, 125 μL of the urine specimen, and 12.5 μL of the second reagent, the measurement sample was prepared by stirring at about 39° C. for 9 seconds, and then flowed into the flow cell of the detection section. Information on scattered light and fluorescence emitted from particles in the measurement sample that received the laser beam was acquired by the detection unit. A scattergram was generated based on the obtained optical information.

Another assay deals with yeast-like fungi. The assay is described as follows: Clinical urine specimens, staining of yeast-like fungi on the scattergram. It counts as cell-based. The note with it: Example 4, chlorphenesin 3 g/L, or 1,2-octanediol 2 g/L with 2-phenoxyethanol 6 g/L, control UF-CELLPACK SF. As for the experimental part: The following specimens were used as the specimen. • (1) Clinical specimen 1: a specimen in which yeast-like fungi and red blood cells are detected in a microscopy • (2) Clinical specimen 2 to 4: a specimen in which yeast-like fungi have been detected by microscopy • (3) Clinical specimen 5 to 10: a specimen in which red blood cells are detected in a microscopy
A urine sample was measured in the same manner as in Example 1, except that the first reagent was prepared by adding 3 g/L chlorphenesin or 6 g/L 2-phenoxyethanol and 2 g/L 1,2-octanediol to the buffer solution described in Example 1. In addition, a urine sample was measured in the same manner as in Example 1 using UF-CELLPACK SF (manufactured by Sysmex) as a first reagent as a control. UF-CELLPACK SF (manufactured by Sysmex) contained 6 g/L of 2-phenoxyethanol. In the following table, the compound of the present embodiment is shown in bold.

The mark [2] stands for this setting: Example 1, 10 g/L in first reagent, final 7.3 g/L, filtered if not dissolved, relative scale 0-255.

Structures are written as SMILES.

In the case of `OCCCCC(O)CO` (stereo not drawn) [1,2,6-HEXANETRIOL, reference compound], the “AVERAGE VALUE OF FLUORESCENT SIGNAL INTENSITY” value in assay [1] (setting [2]) was determined as 80.5. Take `CCCCCCCCC(O)CO` (stereo not drawn) [1,2-DECANEDIOL, 1,2-decanediol]: the “AVERAGE VALUE OF FLUORESCENT SIGNAL INTENSITY” value in assay [1] (Example 1, 1 g/L in first reagent, final 0.7 g/L, relative scale 0-255) was found to be 252.7. As to `CCCCCCCCCCC(O)CO` (stereo not drawn) [1,2-DODECANEDIOL, reference compound], the “AVERAGE VALUE OF FLUORESCENT SIGNAL INTENSITY” value in assay [1] (Example 1, 0.5 g/L in first reagent, final 0.4 g/L, relative scale 0-255) came out at 107.6. For `CCCCC(O)CO` (stereo not drawn) [1,2-HEXANEDIOL, reference compound], the “AVERAGE VALUE OF FLUORESCENT SIGNAL INTENSITY” value in assay [1] (setting [2]) was 107.7. As to `CCCCCCC(O)CO` (stereo not drawn) [1,2-OCTANEDIOL, 1,2-octanediol], the “AVERAGE VALUE OF FLUORESCENT SIGNAL INTENSITY” value is reported as 253.4 in assay [1] (Example 1, 6 g/L in first reagent, final 4.4 g/L, relative scale 0-255); 222.1 in assay [1] (Example 3, 3 g/L in first reagent, final 2.2 g/L); 245.3 in assay [1] (Example 3, 4 g/L in first reagent, final 2.9 g/L); 251.0 in assay [1] (Example 3, 5 g/L in first reagent, final 3.6 g/L); 252.1 in assay [1] (Example 3, 6 g/L in first reagent, final 4.4 g/L). Besides, the “average value of the fluorescence intensity compared with 2-phenoxyethanol used alone” value in assay [1] was “significantly larger”. For the same compound, the “staining of yeast-like fungi” value is on record as “more strongly stained” with yeast-like fungi (clinical specimen 1 (yeast-like fungi and red blood cells)); “more strongly stained” in the assay with yeast-like fungi (clinical specimens 2 to 4 rich in yeast-like fungi). In the case of `OCCCCCCCCO` [1,8-OCTANEDIOL, reference compound], the “AVERAGE VALUE OF FLUORESCENT SIGNAL INTENSITY” value in assay [1] (setting [2]) is on record as 120.5. As to `COc1cccc(OCC(C)O)c1` (stereo not drawn) [1-(3-METHOXYPHENOXY)-2-PROPANOL, 1-(3-methoxyphenoxy)-2-propanol], in assay [1] (Example 1, 9 g/L in first reagent, final 6.5 g/L, relative scale 0-255), the “AVERAGE VALUE OF FLUORESCENT SIGNAL INTENSITY” value is recorded as 246.8. Besides, the “average value of the fluorescence intensity compared with when other compounds are used” value in assay [1] (Example 1) was “significantly larger”.

Take `CCCCCCCCC(C)O` (stereo not drawn) [2-DECANOL, reference compound]: the “AVERAGE VALUE OF FLUORESCENT SIGNAL INTENSITY” value in assay [1] (setting [2]) amounted to 106.0. With `CCCCCC(C)O` (stereo not drawn) [2-HEPTANOL, 2-heptanol], the “AVERAGE VALUE OF FLUORESCENT SIGNAL INTENSITY” value in assay [1] (setting [2]) was 250.1. In assay [1], the “average value of the fluorescence intensity compared with 2-phenoxyethanol used alone” value was “significantly larger”. With `CCCCCCC(C)O` (stereo not drawn) [2-OCTANOL, 2-octanol], in assay [1] (setting [2]), the “AVERAGE VALUE OF FLUORESCENT SIGNAL INTENSITY” value came to 240.6. For the compound `OCCOc1ccccc1` [2-PHENOXYETHANOL, 2-phenoxyethanol, reference compound], the “AVERAGE VALUE OF FLUORESCENT SIGNAL INTENSITY” value in assay [1] (Example 1, 7.5 g/L in first reagent, final 5.4 g/L, relative scale 0-255) is recorded as 196.9. On to `OCCCOc1ccccc1` [3-PHENOXY-1-PROPANOL, 3-phenoxy-1-propanol], for which, in assay [1] (Example 1, 7 g/L in first reagent, final 5.1 g/L, relative scale 0-255), the “AVERAGE VALUE OF FLUORESCENT SIGNAL INTENSITY” value is 253.6. Moreover, the “average value of the fluorescence intensity compared with when other compounds are used” value in assay [1] (Example 1) is “significantly larger”. Further, the “average value of the fluorescence intensity compared with 2-phenoxyethanol used alone” value in assay [1] was “significantly larger”. In the case of `COC(=O)c1ccc(O)cc1` [METHYLPARABEN, reference compound], the “AVERAGE VALUE OF FLUORESCENT SIGNAL INTENSITY” value in assay [1] (Example 1, 1.9 g/L in first reagent, final 1.4 g/L, relative scale 0-255) was 220.5. For the compound `Oc1ccccc1-c1ccccc1` [ORTHOPHENYLPHENOL, orthophenylphenol], the “AVERAGE VALUE OF FLUORESCENT SIGNAL INTENSITY” value in assay [1] (Example 1, 3 g/L in first reagent, final 2.2 g/L, relative scale 0-255) was found to be 250.1. Moreover, the “average value of the fluorescence intensity compared with when other compounds are used” value in assay [1] (Example 1) is on record as “significantly larger”. With `OCCOCCOc1ccccc1` [PHENYL DIGLYCOL, reference compound], the “AVERAGE VALUE OF FLUORESCENT SIGNAL INTENSITY” value in assay [1] (setting [2]) was 165.0.
